# Experimental data taken from patent US20130296228A1, “EFFLUX PUMP INHIBITORS” (priority 2010, published 2013).
# Several values for one entry are separate records, joined by “and”; a condition that tells them apart may be missing. Identical values can stand only once. Like-named read-outs stand apart in the source and are kept apart here. Residues, ends and D or L forms follow the SMILES beside them.
# What was measured:
# [1] = test system: MDR clinical isolate of P. aeruginosa 2301; assay: Systemic infection in mice, % survival; format: in vivo; details: Table 7, mice, Oral
# P. aeruginosa 23587 = assay: Diameter of zone of inhibition of antimicrobial agents with or without efflux pump inhibitor; format: cell-based; details: for change of activity in the presence of PAN: clinical isolates P. aeruginosa 23587 and P. aeruginosa 2301; for inhibition of MDR RND efflux pumps, concluded from potentiation: clinical isolates of P. aeruginosa
# Excerpt: Since RND efflux pumps operate by utilizing energy in […], metabolic inhibitor, sodium azide brings about MDR RND pump inhibition by causing energy deprivation.
# P. aeruginosa 2301 [2] = assay: Survival of high density inoculation in MHA medium; format: cell-based; details: high density inoculation 2-5 × 10^9 CFU/ml; 20 mcg/ml in MHA medium
# Excerpt: In a most surprising manner, the combination of ceftazidime and azithromycin and tigecycline respectively brought about more than 7 log reduction in the bacterial count as compared to individual effects in highly resistant Pseudomonas strain. Moreover in a very unusual and surprising manner this tremendous bactericidal effect is taking place at concentrations much below than their individual inhibitory concentrations. […] It is also likely that ceftazidime interacts with outer membrane porins and acts as a porin modulator. Bacalum et al. have shown that ceftazidime binds to outer membrane porins with high affinity (Bacalum et al. Romanian. J. Biophys., 19, 105-116, 2009).
# P. aeruginosa 2301 [3] = assay: Diameter of zone of inhibition of antimicrobial agents with or without efflux pump inhibitor; format: cell-based; details: for Diameter of zone of inhibition: P. aeruginosa 2301
# [4] = Table 1, P. aeruginosa 23587, +PAN (20 μg/ml), 12.5 μg/well
# [5] = Table 2, P. aeruginosa (23587), +sodium azide (10 μg/ml), 50 μg/well
# [6] = Table 2, P. aeruginosa (23587), +sodium azide (10 μg/ml), 100 μg/well
# [7] = Table 2, P. aeruginosa (23587), +sodium azide (10 μg/ml), 200 μg/well
# [8] = Table 1, +PAN (20 μg/ml), 12.5 μg/well
compound,measurement,setting,value
"CS(=O)(=O)O.C[C@H](N)C(=O)OC1CCN(c2c(F)cc3c(=O)c(C(=O)O)cn4c3c2CC[C@@H]4C)CC1 [2′S,5S-(−)-9-Fluoro-8-(4-alaninyloxy-piperidin-1-yl)-5-methyl-6,7-dihydro-1-oxo-1H,5H-benzo[i,j]quinolizine-2-carboxylic acid methane sulfonic acid salt]",% survival,[1]; 50 mg/kg BID × 1 day,0%
same,% survival,[1]; 75 mg/kg BID × 1 day,16.6%
same,% survival,[1]; 100 mg/kg BID × 1 day,16.6%
"CC[C@H]1OC(=O)[C@H](C)[C@@H](O[C@H]2C[C@@](C)(OC)[C@@H](O)[C@H](C)O2)[C@H](C)[C@@H](O[C@@H]2O[C@H](C)C[C@H](N(C)C)[C@H]2O)[C@](C)(O)C[C@@H](C)CN(C)[C@H](C)[C@@H](O)[C@]1(C)O [Azithromycin, azithromycin]",change of activity in presence of reserpine,P. aeruginosa 23587,no change
same,change of activity on addition of sodium azide,P. aeruginosa 23587,potentiated
same,change of activity in the presence of cefepime and ceftazidime,P. aeruginosa 23587; Example 3,significant potentiation
same,Diameter of zone of inhibition,P. aeruginosa 23587; [4],16 m.m.
same,Diameter of zone of inhibition,"P. aeruginosa 23587; Table 1, P. aeruginosa 23587, +PAN (20 μg/ml), 25 μg/well",23.5 m.m.
same,Diameter of zone of inhibition,"P. aeruginosa 23587; Table 1, P. aeruginosa 23587, +PAN (20 μg/ml), 50 μg/well",27 m.m.
same,Diameter of zone of inhibition,"P. aeruginosa 23587; Table 1, P. aeruginosa 23587, Control, 25 μg/well",19H
same,Diameter of zone of inhibition,"P. aeruginosa 23587; Table 1, P. aeruginosa 23587, Control, 50 μg/well",23H
same,Diameter of zone of inhibition,"P. aeruginosa 23587; Table 2, P. aeruginosa (23587), +Reserpine (25 μg/ml), 50 μg/well",12H
same,Diameter of zone of inhibition,"P. aeruginosa 23587; Table 2, P. aeruginosa (23587), +Reserpine (25 μg/ml), 100 μg/well",20H
same,Diameter of zone of inhibition,"P. aeruginosa 23587; Table 2, P. aeruginosa (23587), +Reserpine (25 μg/ml), 200 μg/well",24H
same,Diameter of zone of inhibition,P. aeruginosa 23587; [5],21H
same,Diameter of zone of inhibition,P. aeruginosa 23587; [6],24H
same,Diameter of zone of inhibition,P. aeruginosa 23587; [7],30 m.m.
same,Diameter of zone of inhibition,"P. aeruginosa 23587; Table 2, P. aeruginosa (23587), Control, 50 μg/well",12H
same,Diameter of zone of inhibition,"P. aeruginosa 23587; Table 2, P. aeruginosa (23587), Control, 100 μg/well",20H
same,Diameter of zone of inhibition,"P. aeruginosa 23587; Table 2, P. aeruginosa (23587), Control, 200 μg/well",24H
same,Diameter of zone of inhibition,"P. aeruginosa 23587; Table 3, P. aeruginosa 23587, +Cefepime (1 μg/ml), 100 μg/Well",28H
same,Diameter of zone of inhibition,"P. aeruginosa 23587; Table 3, P. aeruginosa 23587, +Cefepime (1 μg/ml), 200 μg/Well",30H
same,Diameter of zone of inhibition,"P. aeruginosa 23587; Table 3, P. aeruginosa 23587, +Ceftazidime (1 μg/ml), 100 μg/Well",36 m.m.
same,Diameter of zone of inhibition,"P. aeruginosa 23587; Table 3, P. aeruginosa 23587, +Ceftazidime (1 μg/ml), 200 μg/Well",42 m.m.
same,Diameter of zone of inhibition,"P. aeruginosa 23587; Table 3, P. aeruginosa 23587, Control, 100 μg/Well",20H
same,Diameter of zone of inhibition,"P. aeruginosa 23587; Table 3, P. aeruginosa 23587, Control, 200 μg/Well",24H
same,change of activity in the presence of PAN,P. aeruginosa 23587,Synergistic enhancement
same,CFU/ml at 48 h,P. aeruginosa 2301 [2],>5 × 10^9 CFU/ml
same,change of activity in the presence of cefepime and ceftazidime,P. aeruginosa 2301 [3]; Example 6,significant potentiation
same,Diameter of zone of inhibition,P. aeruginosa 2301 [3]; [8],25 m.m.
same,Diameter of zone of inhibition,"P. aeruginosa 2301 [3]; Table 1, +PAN (20 μg/ml), 25 μg/well",28 m.m.
same,Diameter of zone of inhibition,"P. aeruginosa 2301 [3]; Table 1, +PAN (20 μg/ml), 50 μg/well",32 m.m.
same,Diameter of zone of inhibition,"P. aeruginosa 2301 [3]; Table 1, Control, 25 μg/well",SLI
same,Diameter of zone of inhibition,"P. aeruginosa 2301 [3]; Table 1, Control, 50 μg/well",13.5H
same,Diameter of zone of inhibition,"P. aeruginosa 2301 [3]; Table 6, +Cefepime (2 μg/ml), 50 μg/Well",24H
same,Diameter of zone of inhibition,"P. aeruginosa 2301 [3]; Table 6, +Cefepime (2 μg/ml), 100 μg/Well",28H
same,Diameter of zone of inhibition,"P. aeruginosa 2301 [3]; Table 6, +Cefepime (2 μg/ml), 200 μg/Well",30H
same,Diameter of zone of inhibition,"P. aeruginosa 2301 [3]; Table 6, +Ceftazidime (0.5 μg/ml), 50 μg/Well",32H
same,Diameter of zone of inhibition,"P. aeruginosa 2301 [3]; Table 6, +Ceftazidime (0.5 μg/ml), 100 μg/Well",36H
same,Diameter of zone of inhibition,"P. aeruginosa 2301 [3]; Table 6, +Ceftazidime (0.5 μg/ml), 200 μg/Well",42H
same,Diameter of zone of inhibition,"P. aeruginosa 2301 [3]; Table 6, Control, 50 μg/Well",12H
same,Diameter of zone of inhibition,"P. aeruginosa 2301 [3]; Table 6, Control, 100 μg/Well",20H
same,Diameter of zone of inhibition,"P. aeruginosa 2301 [3]; Table 6, Control, 200 μg/Well",24H
"CO/N=C(\C(=O)N[C@@H]1C(=O)N2C(C(=O)[O-])=C(C[N+]3(C)CCCC3)CS[C@H]12)c1csc(N)n1 [Cefepime, cefepime]","inhibition of MDR RND efflux pumps, concluded from potentiation",P. aeruginosa 23587,inhibit RND pumps
"CC[n+]1c(-c2ccccc2)c2cc(N)ccc2c2ccc(N)cc21 [Ethidium Bromide, ethidium bromide]",Diameter of zone of inhibition,P. aeruginosa 23587; [5],10H
same,Diameter of zone of inhibition,P. aeruginosa 23587; [6],13H
same,Diameter of zone of inhibition,P. aeruginosa 23587; [7],16H
"NC(N)=NCCCC(NC(=O)[C@@H](N)Cc1ccccc1)C(=O)Nc1ccc2ccccc2c1 (stereo partly drawn) [PAN, Phe-Arg-beta-naphthylamide] (HELM PEPTIDE1{F.[N=C(N)NCCCC(N[*:1])C(=O)[*:2]].[c1ccc2cc(N[*:1])ccc2c1]}$$$$V2.0)","inhibition of MDR RND efflux pumps, concluded from potentiation",P. aeruginosa 23587,efflux inhibition
"CN(C)c1cc(NC(=O)CNC(C)(C)C)c(O)c2c1C[C@H]1C[C@H]3[C@H](N(C)C)C(O)=C(C(N)=O)C(=O)[C@@]3(O)C(O)=C1C2=O [Tigecycline, tigecycline]",CFU/ml at 48 h,P. aeruginosa 2301 [2],>5 × 10^9 CFU/ml
CC(=O)NC[C@H]1CN(c2ccc(N3CCOCC3)c(F)c2)C(=O)O1 [linezolid],change of activity in the presence of PAN,P. aeruginosa 23587,Synergistic enhancement
COC(=O)[C@H]1[C@H]2C[C@@H]3c4[nH]c5cc(OC)ccc5c4CCN3C[C@H]2C[C@@H](OC(=O)c2cc(OC)c(OC)c(OC)c2)[C@@H]1OC [reserpine],"inhibition of MDR RND efflux pumps, concluded from potentiation",P. aeruginosa 23587,non inhibition
colistin,Diameter of zone of inhibition,P. aeruginosa 23587,12.5 m.m. and 14 m.m. and 16.5 m.m. and 11.5 m.m. and 16 m.m.
same,Diameter of zone of inhibition,P. aeruginosa 23587; [4],16.5 m.m.
same,Diameter of zone of inhibition,"P. aeruginosa 23587; Table 2, P. aeruginosa (23587), +Reserpine (25 μg/ml), 12.5 μg/well",16 m.m.
same,Diameter of zone of inhibition,"P. aeruginosa 23587; Table 2, P. aeruginosa (23587), +sodium azide (10 μg/ml), 12.5 μg/well",16 m.m.
same,Diameter of zone of inhibition,"P. aeruginosa 23587; Table 3, P. aeruginosa 23587, +Cefepime (1 μg/ml), 12.5 μg/Well",16 m.m.
same,Diameter of zone of inhibition,"P. aeruginosa 23587; Table 3, P. aeruginosa 23587, +Ceftazidime (1 μg/ml), 12.5 μg/Well",16 m.m.
same,change of activity in the presence of PAN,P. aeruginosa 23587,no change
same,Diameter of zone of inhibition,P. aeruginosa 2301 [3]; [8],16 m.m.
same,Diameter of zone of inhibition,"P. aeruginosa 2301 [3]; Table 6, +Cefepime (2 μg/ml), 12.5 μg/Well",16 m.m.
same,Diameter of zone of inhibition,"P. aeruginosa 2301 [3]; Table 6, +Ceftazidime (0.5 μg/ml), 12.5 μg/Well",16 m.m.
